Laboratory results as given in the supplement of paper PMC10307832.

Columns and labels:
Experiment in all cases: relative viability (nuclei count vs DMSO), 5 days (fraction); higher = more cells survive
[1] = compound: CN1C=C(C2=CC=CC=C21)/C=C\3/C4=C(C=CC=N4)NC3=O + Cc1nc(NC(=O)N2CCC[C@H]2C(N)=O)sc1-c1ccnc(C(C)(C)C(F)(F)F)c1 [Alpelisib] (partner 2 µM)
In short: (§1)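 After 5 days of treatment, lung cancer cells in 1536-well plates were fixed and stained in a single step (final 0.05% Triton X-100, 1% formaldehyde, 1 ug/ml Hoechst) and their nuclei counted on 4× images. Treatment had been applied by pin tool the day after seeding as one drug alone or as a fixed anchor-drug dose with five library-drug doses (not always all listed) in √10 steps. Relative viability is the nuclei count of treated wells divided by that of vehicle wells, and values are medians of duplicate plates.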

[2] = compound: CN1C=C(C2=CC=CC=C21)/C=C\3/C4=C(C=CC=N4)NC3=O + Cc1cc(Nc2cc(N3CCN(C)CC3)nc(Sc3ccc(NC(=O)C4CC4)cc3)n2)n[nH]1 [Tozasertib] (partner 0.1 µM)
In short: as §1

Trametinib + Foretinib = compound: CC(=O)Nc1cccc(-n2c(=O)n(C3CC3)c(=O)c3c(Nc4ccc(I)cc4F)n(C)c(=O)c(C)c32)c1 [Trametinib] + COc1cc2c(Oc3ccc(NC(=O)C4(C(=O)Nc5ccc(F)cc5)CC4)cc3F)ccnc2cc1OCCCN1CCOCC1 [Foretinib] (partner 0.25 µM)
In short: as §1

Trametinib + Navitoclax = compound: CC(=O)Nc1cccc(-n2c(=O)n(C3CC3)c(=O)c3c(Nc4ccc(I)cc4F)n(C)c(=O)c(C)c32)c1 [Trametinib] + CC1(C)CCC(c2ccc(Cl)cc2)=C(CN2CCN(c3ccc(C(=O)NS(=O)(=O)c4ccc(N[C@H](CCN5CCOCC5)CSc5ccccc5)c(S(=O)(=O)C(F)(F)F)c4)cc3)CC2)C1 [Navitoclax] (partner 0.5 µM)
In short: as §1

| Cell Line | relative viability ([1]; first compound 0.02 µM) | relative viability ([1]; first compound 0.06325 µM) | relative viability ([1]; first compound 0.2 µM) | relative viability ([1]; first compound 0.6325 µM) | relative viability ([1]; first compound 2 µM) | relative viability ([2]; first compound 0.02 µM) | relative viability ([2]; first compound 0.06325 µM) | relative viability ([2]; first compound 0.2 µM) | relative viability ([2]; first compound 0.6325 µM) | relative viability ([2]; first compound 2 µM) | relative viability (Trametinib + Foretinib; first compound 0.0025 µM) | relative viability (Trametinib + Foretinib; first compound 0.007906 µM) | relative viability (Trametinib + Foretinib; first compound 0.025 µM) | relative viability (Trametinib + Foretinib; first compound 0.07906 µM) | relative viability (Trametinib + Foretinib; first compound 0.25 µM) | relative viability (Trametinib + Navitoclax; first compound 0.0025 µM) | relative viability (Trametinib + Navitoclax; first compound 0.007906 µM) | relative viability (Trametinib + Navitoclax; first compound 0.025 µM) | relative viability (Trametinib + Navitoclax; first compound 0.07906 µM) | relative viability (Trametinib + Navitoclax; first compound 0.25 µM) |
| --- | --- | --- | --- | --- | --- | --- | --- | --- | --- | --- | --- | --- | --- | --- | --- | --- | --- | --- | --- | --- |
| ABC-1 | 1.05 | 0.785 | 0.84 | 0.714 | 0.923 | 0.173 | 0.18 | 0.172 | 0.173 | 0.183 | 1.04 | 0.834 | 0.715 | 0.891 | 0.685 | – | – | – | – | – |
| EBC-1 | 0.727 | 0.776 | 0.894 | 0.823 | 0.784 | – | – | – | – | – | 0.101 | 0.0972 | 0.0957 | 0.0946 | 0.0905 | 0.274 | 0.218 | 0.157 | 0.141 | 0.179 |
| NCI-H1703 | 0.436 | 0.299 | 0.324 | 0.41 | 0.268 | – | – | – | – | – | 0.371 | 0.315 | 0.357 | 0.368 | 0.323 | 1.15 | 1.15 | 1.06 | 0.972 | 0.987 |
| NCI-H1563 | 0.898 | 0.951 | 0.73 | 0.977 | 0.863 | – | – | – | – | – | 0.953 | 0.815 | 0.807 | 0.804 | 0.694 | – | – | – | – | – |
| NCI-H1299 | 1.06 | 1.14 | 1.14 | 1.1 | 1.06 | – | – | – | – | – | 1.07 | 1.2 | 1.01 | 0.794 | 0.481 | 1.04 | 1.01 | 0.896 | 0.887 | 0.78 |
| A549 | 0.863 | 0.736 | 0.843 | 0.808 | 0.691 | – | – | – | – | – | 0.817 | 0.594 | 0.534 | 0.178 | 0.0763 | 1.12 | 0.81 | 0.464 | 0.281 | 0.0636 |
| NCI-H522 | – | – | – | – | – | 0.562 | 0.575 | 0.518 | 0.283 | 0.556 | – | – | – | – | – | – | – | – | – | – |
| NCI-H1650 | – | – | – | – | – | 0.41 | 0.366 | 0.454 | 0.334 | 0.35 | 1.18 | 0.857 | 0.894 | 0.838 | 0.506 | 0.94 | 0.857 | 0.816 | 0.473 | 0.35 |
| NCI-H1648 | – | – | – | – | – | – | 0.435 | 0.435 | 0.387 | 0.372 | – | – | – | – | – | – | – | – | – | – |
| NCI-H661 | 0.889 | 0.591 | 0.423 | 0.402 | 0.591 | 0.344 | 0.349 | 0.365 | 0.4 | 0.36 | 0.941 | 1 | 0.794 | 0.751 | 0.62 | – | – | – | – | – |
| NCI-H2342 | – | – | – | – | – | 0.492 | 0.437 | 0.556 | 0.438 | 0.505 | 1.05 | 0.911 | – | 0.908 | 0.997 | – | – | – | – | – |
| Calu-6 | 0.823 | 0.856 | 0.959 | 0.975 | 0.911 | – | – | – | – | – | 0.835 | 0.503 | 0.418 | 0.12 | 0.131 | 0.601 | 0.295 | 0.177 | 0.129 | 0.127 |
